Here are results for one compound from PMC6508677, “Identification of druggable small molecule antagonists of the Plasmodium falciparum hexose transporter PfHT and assessment of ligand access to the glucose permeation pathway via FLAG-mediated protein engineering” (PLoS ONE, 2019).

Structures are written as SMILES. Where “and” joins values, the source holds several entries; their conditions need not be identical. Equal entries are not always repeated. Where two headings read alike, the source gives them in different places.

The target of the assay is T1, hGLUT8 (Homo sapiens, UniProt Q9NY64, E7R/E8R).
T1 construct: expressed in transfected cells; host or cells: HEK293 (HEK293-FLIP, native hGLUT1 knocked down)
T1 sequence (Q9NY64 1-477 E7R/E8R): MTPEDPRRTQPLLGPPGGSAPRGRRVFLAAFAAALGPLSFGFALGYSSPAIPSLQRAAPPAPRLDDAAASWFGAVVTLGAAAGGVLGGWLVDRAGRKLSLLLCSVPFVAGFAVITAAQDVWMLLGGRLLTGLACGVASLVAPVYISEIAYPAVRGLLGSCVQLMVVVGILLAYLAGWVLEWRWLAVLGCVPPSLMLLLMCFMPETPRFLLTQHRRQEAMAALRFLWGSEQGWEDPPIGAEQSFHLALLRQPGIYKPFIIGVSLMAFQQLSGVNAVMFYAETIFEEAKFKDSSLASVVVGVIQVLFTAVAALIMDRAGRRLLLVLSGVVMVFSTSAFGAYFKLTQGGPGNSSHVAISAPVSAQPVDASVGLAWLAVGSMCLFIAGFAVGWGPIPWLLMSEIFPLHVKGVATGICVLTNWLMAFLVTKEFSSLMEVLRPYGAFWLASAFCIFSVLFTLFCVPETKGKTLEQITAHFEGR
Put plainly: [3H]-D-fructose uptake by HEK293 cells overexpressing hGLUT8. Type of assay: cell-based. The source says: Generation of HEK293 cells overexpressing PfHT and human GLUTs 1–4 were described elsewhere. Briefly, HEK293 cells were transfected with pcDNA3.1 FLII12Pglu-7006 (Addgene), containing the fluorescence resonance energy transfer (FRET) glucose sensor (HEK293-FLIP) and PfHT, human GLUT1 (hGLUT1), hGLUT2, hGLUT3, hGLUT4, hGLUT5 or hGLUT8 using Optifect (Life Technologies) according to manufacturer’s specifications. To increase retention of GLUT8 at the plasma membrane, the dileucine sorting signal E^7E^8XXXLL was modified to R^7R^8XXXLL as described in [17]. Stable transfectants were selected for G418 and hygromycin resistance to select for FRET sensor and hexose transporter, respectively. HEK293-FLIP cells were also used to generate cells stably transfected with FLAG-tagged PfHT (FTPfHT). FLAG tag ([…]) followed by a triple glycine linker and a tobacco etch virus (TEV) protease site (ENLYFQS) followed by a triple glycine linker was added to the N-terminus of PfHT via PCR [18] using Phusion Hot Start II High-Fidelity DNA Polymerase (Fisher Scientific). Single clones were selected by comparing their abilities to transport glucose as assayed via FRET and radiolabeled hexose uptake. In all cell lines, except for HEK293 cells overexpressing hGLUT1 and hGLUT5, native hGLUT1 was knocked down using shRNA as described elsewhere. Transcript levels of the individual GLUTs expressed in each cell line are as described in [13, 15] and in S1 Fig.
Glucose uptake by P. falciparum was performed essentially as described. P. falciparum strain 3D7 was cultured in 100 mm tissue culture dishes (Techno Plastic Products) in a 2% suspension of human erythrocytes and RPMI 1640 medium until reaching > 7.5% parasitemia. Cells were pelleted via centrifugation and resuspended in RPMI 1640 medium. To determine the uptake of radiolabeled glucose into the parasite, parasites were isolated from infected erythrocytes by permeablization with saponin (0.05 w/v), followed by centrifugation, aspiration of supernatant and washing of the pellet 3X with saline solution (135 mM NaCl, 2 mM KCl, 25 mM HEPES, 0.2 mM glucose and 1 mM MgCl2; pH 7.1) to remove cellular debris. WU-1 or DMSO vehicle were added to 100 μl parasites (resuspended in saline) 5 min prior to the addition of 100 μl [^14C]2-DOG (0.2- μCi/ml final concentration). 2-DG uptake was stopped after 2 min by layering the entire reaction over 300 μl of an oil mixture (5:4 mix of dibutyl phthalate / dinonyl phthalate) in Eppendorf tubes and centrifuged at 15,850 × g for 2 mins. The ratio of the estimated intracellular concentration of radiolabel relative to the extracellular concentration were calculated as described. Uptake of radiolabeled hexose into HEK293 cells was measured in glucose-free HBSS as described previously. Briefly, cells were plated at 400,000 cells/well overnight at 37°C in 24-well plates pre-treated with PEI. After 30-min incubation at 37°C in glucose-free HBSS in the presence of vehicle or increasing concentrations of compound, 2-DG uptake was measured in glucose-free HBSS for 4 min at 37°C. Cultures were washed in ice-cold 1X PBS and lysed in 0.1% Triton X-100 in 1X PBS. Radiolabeled hexose uptake was determined by liquid scintillation counting (Ultima Gold, Thermo Fisher) and normalized to total protein per well. Uptake data are plotted as percent uptake relative to vehicle-treated cells. Kinetic analyses were performed using the indicated concentrations of substrate and WU-1, with quenching of uptake after 1 min incubation. Incubation times had been previously determined as being in the linear range of time-dependent radiolabeled hexose uptake (2 min for 2-DG uptake into freed parasites; 2 and 4 min for D-Frc and 2-DG uptake HEK cell lines, respectively). Data were fit by least squares nonlinear regression analysis using GraphPad Prism 6.0 software.

The mark [1] stands for this setting: HEK293, 2 min, read-out: D-frc Uptake AVE.

Consider `Cc1ccc(S(=O)(=O)CCNC(=O)c2c(-c3c(Cl)cccc3Cl)noc2C)cc1` [WU-1, 3-(2,6-dichlorophenyl)-5-methyl-N-[2-(4-methylbenzenesulfonyl)ethyl]-1,2-oxazole-4-carboxamide], for which the IC50 – broadly, the midpoint of a concentration-inhibition curve – was 22 µM (GLUT8, D-frc Uptake, average of Expt 1-3, read-out: AVE IC50); 23.3 µM and 19.7 µM and 23.1 µM (GLUT8, D-frc Uptake, single experiments Expt 1-3, read-out: IC50); 22 ± 1.2 µM (GLUT8 cell line, read-out: IC50, D-fructose (Frc) uptake). The remaining activity at 0.001 µM (HEK293, 2 min, GLUT8, concentration 0.001 µM, Expt 1-3, read-out: D-frc Uptake AVE) was 100%. For the same compound, the remaining activity at 0.313 µM (HEK293, 2 min, GLUT8, concentration 0.313 µM, read-out: D-frc Uptake AVE) came out at 96.4%. The remaining activity at 0.625 µM (HEK293, 2 min, GLUT8, concentration 0.625 µM, read-out: D-frc Uptake AVE) is 90% and the remaining activity at 0.625 µM under setting [1] was 91.6%. Moreover, for the setting “HEK293, 2 min, GLUT8, concentration 1.250 µM, read-out: D-frc Uptake AVE”, the remaining activity at 1.25 µM is 89.1%. Moreover, the remaining activity at 2.5 µM runs as follows: (HEK293, 2 min, GLUT8, concentration 2.500 µM, read-out: D-frc Uptake AVE) 86%; under setting [1], 84.6%. The remaining activity at 5 µM (HEK293, 2 min, GLUT8, concentration 5.0 µM, read-out: D-frc Uptake AVE) came out at 78.5%. Also, the remaining activity at 10 µM (HEK293, 2 min, GLUT8, concentration 10.0 µM, read-out: D-frc Uptake AVE) stood at 71.4%. For the same compound, the remaining activity at 20 µM (HEK293, 2 min, GLUT8, concentration 20 µM, read-out: D-frc Uptake AVE) is 53%. In addition, the remaining activity at 40 µM (HEK293, 2 min, GLUT8, concentration 40 µM, read-out: D-frc Uptake AVE) is 46.1%. The remaining activity at 80 µM (HEK293, 2 min, GLUT8, concentration 80 µM, read-out: D-frc Uptake AVE) came out at 30.5%. Moreover, the remaining activity at 160 µM (HEK293, 2 min, GLUT8, concentration 160 µM, read-out: D-frc Uptake AVE) was 24.8%. Moreover, for the setting “HEK293, 2 min, GLUT8, concentration 225 µM, read-out: D-frc Uptake AVE”, the remaining activity at 225 µM was determined as 22.6%. Also, the “Selectivity Index (PfHT over GLUT8), Frc” value (calculated from IC50s) was 4.4.
